Measured values as given in patent US9828393B2, “Silylalkyloxyaryl compounds and methods for treating cancer” (THE REGENTS OF THE UNIVERSITY OF COLORADO, a body corporate, priority 2013, dated 2017).

Experiments:
[1] = system: CCRF-CEM; assay: NCI-60 cell line screen (SRB), CCRF-CEM; assay type: cell-based, human; conditions: Homo sapiens, 48 h
Description: (§1) Drug sensitivity data are provided as GI50s (concentrations required to inhibit growth by 50%). The first row of the text file identifies cell lines, separated by tabs. Subsequent rows contain compound number, compound name, and GI50 for each cell line, each separated by a tab. […] For a typical screening experiment, cells are inoculated into 96 well microtiter plates in 100 μL at plating densities ranging from 5,000 to 40,000 cells/well depending on the doubling time of individual cell lines. After cell inoculation, the microtiter plates are incubated at 37° C., 5% CO2, 95% air and 100% relative humidity for 24 h prior to addition of experimental drugs. After 24 h, two plates of each cell line are fixed in situ with TCA, to represent a measurement of the cell population for each cell line at the time of drug addition (Tz). Experimental drugs are solubilized in dimethyl sulfoxide at 400-fold the desired final maximum test concentration and stored frozen prior to use. At the time of drug addition, an aliquot of frozen concentrate is thawed and diluted to twice the desired final maximum test concentration with complete medium containing 50 μg/ml gentamicin. Additional four, 10-fold or one-half log serial dilutions are made to provide a total of five drug concentrations plus control. Aliquots of 100 μl of these different drug dilutions are added to the appropriate microtiter wells already containing 100 μl of medium, resulting in the required final drug concentrations. Following drug addition, the plates are incubated for an additional 48 h at 37° C., 5% CO2, 95% air, and 100% relative humidity. For adherent cells, the assay is terminated by the addition of cold TCA. Cells are fixed in situ by the gentle addition of 50 μl of cold 50% (w/v) TCA (final concentration, 10% TCA) and incubated for 60 minutes at 4° C. The supernatant is discarded, and the plates are washed five times with tap water and air dried. Sulforhodamine B (SRB) solution (100 μl) at 0.4% (w/v) in 1% acetic acid is added to each well, and plates are incubated for 10 minutes at room temperature. After staining, unbound dye is removed by washing five times with 1% acetic acid and the plates are air dried. Bound stain is subsequently solubilized with 10 mM trizma base, and the absorbance is read on an automated plate reader at a wavelength of 515 nm. For suspension cells, the methodology is the same except that the assay is terminated by fixing settled cells at the bottom of the wells by gently adding 50 μl of 80% TCA (final concentration, 16% TCA). Using the seven absorbance measurements [time zero, (Tz), control growth, (C), and test growth in the presence of drug at the five concentration levels (Ti)], the percentage growth is calculated at each of the drug concentrations levels. […]

[2] = system: MOLT-4; assay: NCI-60 cell line screen (SRB), MOLT-4; assay type: cell-based, human; conditions: Homo sapiens, MOLT-4, 48 h
Description: as §1

[3] = system: RPMI-8226; assay: NCI-60 cell line screen (SRB), RPMI-8226; assay type: cell-based, human; conditions: Homo sapiens, RPMI-8226, 48 h
Description: as §1

[4] = system: Leukemia cell lines; assay: NCI-60 cell line screen, Leukemia panel average; assay type: cell-based, human; conditions: Homo sapiens, read-out: GI50 Average
Description: as §1

[5] = system: A549/ATCC; assay: NCI-60 cell line screen (SRB), A549/ATCC; assay type: cell-based, human; conditions: Homo sapiens, A549, 48 h
Description: as §1

[6] = system: NCI-H226; assay: NCI-60 cell line screen (SRB), NCI-H226; assay type: cell-based, human; conditions: Homo sapiens, NCI-H226, 48 h
Description: as §1

[7] = system: NCI-H23; assay: NCI-60 cell line screen (SRB), NCI-H23; assay type: cell-based, human; conditions: Homo sapiens, NCI-H23, 48 h
Description: as §1

[8] = system: NCI-H322M; assay: NCI-60 cell line screen (SRB), NCI-H322M; assay type: cell-based, human; conditions: Homo sapiens, 48 h
Description: as §1

[9] = system: Non-Small Cell Lung Cancer cell lines; assay: NCI-60 cell line screen, Non-Small Cell Lung Cancer panel average; assay type: cell-based, human; conditions: Homo sapiens, read-out: GI50 Average
Description: as §1

[10] = system: HCC-2998; assay: NCI-60 cell line screen (SRB), HCC-2998; assay type: cell-based, human; conditions: Homo sapiens, HCC 2998, 48 h
Description: as §1

[11] = system: HCT-15; assay: NCI-60 cell line screen (SRB), HCT-15; assay type: cell-based, human; conditions: Homo sapiens, HCT-15, 48 h
Description: as §1

[12] = system: SNB-19; assay: NCI-60 cell line screen (SRB), SNB-19; assay type: cell-based, human; conditions: Homo sapiens, SNB-19, 48 h
Description: as §1

[13] = system: SNB-75; assay: NCI-60 cell line screen (SRB), SNB-75; assay type: cell-based; conditions: Homo sapiens, SNB-75, 48 h
Description: as §1, with “temperature.” for “temperature. After staining, unbound dye is removed by washing five times with 1% acetic acid and the plates are air dried. Bound stain is subsequently solubilized with 10 mM trizma base, and the absorbance is read on an automated plate reader at a wavelength of 515 nm. For suspension cells, the methodology is the same except that the assay is terminated by fixing settled cells at the bottom of the wells by gently adding 50 μl of 80% TCA (final concentration, 16% TCA). Using the seven absorbance measurements [time zero, (Tz), control growth, (C), and test growth in the presence of drug at the five concentration levels (Ti)], the percentage growth is calculated at each of the drug concentrations levels.”

[14] = system: M14; assay: NCI-60 cell line screen (SRB), M14; assay type: cell-based, human; conditions: Homo sapiens, M14, 48 h
Description: as §1

[15] = system: SK-MEL-5; assay: NCI-60 cell line screen (SRB), SK-MEL-5; assay type: cell-based, human; conditions: Homo sapiens, SK-MEL-5, 48 h
Description: as §1

[16] = system: OVCAR-4; assay: NCI-60 cell line screen (SRB), OVCAR-4; assay type: cell-based, human; conditions: Homo sapiens, OVCAR-4, 48 h
Description: as §1

[17] = system: NCI/ADR-RES; assay: NCI-60 cell line screen (SRB), NCI/ADR-RES; assay type: cell-based, human; conditions: Homo sapiens, 48 h
Description: as §1

[18] = system: Ovarian Cancer cell lines; assay: NCI-60 cell line screen, Ovarian Cancer panel average; assay type: cell-based, human; conditions: Homo sapiens, read-out: GI50 Average
Description: as §1

[19] = system: 786-0; assay: NCI-60 cell line screen (SRB), 786-0; assay type: cell-based, human; conditions: Homo sapiens, 786-0, 48 h
Description: as §1

[20] = system: SN12C; assay: NCI-60 cell line screen (SRB), SN12C; assay type: cell-based, human; conditions: Homo sapiens, 48 h
Description: as §1

[21] = system: Renal Cancer cell lines; assay: NCI-60 cell line screen, Renal Cancer panel average; assay type: cell-based, human; conditions: Homo sapiens, read-out: GI50 Average
Description: as §1

[22] = system: PC-3; assay: NCI-60 cell line screen (SRB), PC-3; assay type: cell-based, human; conditions: Homo sapiens, PC-3, 48 h
Description: as §1

[23] = system: HS 578T; assay: NCI-60 cell line screen (SRB), HS 578T; assay type: cell-based, human; conditions: Homo sapiens, Hs-578T, 48 h
Description: as §1

[24] = system: BT-549; assay: NCI-60 cell line screen (SRB), BT-549; assay type: cell-based, human; conditions: Homo sapiens, BT-549, 48 h
Description: as §1

Question: How did the GI50 [1] turn out when `CCCC[Si](C)(C)COc1ccc(C(=O)N[C@@H](Cc2ccc(-c3ccccc3)cc2)C(=O)NC2CC(C)(C)NC(C)(C)C2)cc1` [GH1504, N^α-{4-[(butyldimethylsilyl)methoxy]-benzoyl}-N-(2,2,6,6-tetramethylpiperidin-4-yl)-(4-phenyl-L-phenylalaninamide)] was run?
Answer: 1500 nM

Question: What about the GI50 [2] of the same compound?
Answer: 775 nM

Question: And the GI50 [3]?
Answer: 1950 nM

Question: And the GI50 [4]?
Answer: 1170 nM

Question: And the GI50 [5]?
Answer: 326 nM

Question: What about the GI50 [6] of the same compound?
Answer: 183 nM

Question: What about the GI50 [7] of the same compound?
Answer: 1760 nM

Question: What about the GI50 [8] of the same compound?
Answer: 1710 nM

Question: What about the GI50 [9] of the same compound?
Answer: 1020 nM

Question: What about the GI50 [10] of the same compound?
Answer: 1110 nM

Question: And the GI50 [11]?
Answer: 309 nM

Question: What about the GI50 [12] of the same compound?
Answer: 1550 nM

Question: What about the GI50 [13] of the same compound?
Answer: 1630 nM

Question: What about the GI50 [14] of the same compound?
Answer: 286 nM

Question: And the GI50 [15]?
Answer: 234 nM

Question: What about the GI50 [16] of the same compound?
Answer: 521 nM

Question: What about the GI50 [17] of the same compound?
Answer: 1540 nM

Question: And the GI50 [18]?
Answer: 1150 nM

Question: What about the GI50 [19] of the same compound?
Answer: 780 nM

Question: What about the GI50 [20] of the same compound?
Answer: 526 nM

Question: What about the GI50 [21] of the same compound?
Answer: 1010 nM

Question: And the GI50 [22]?
Answer: 1300 nM

Question: What about the GI50 [23] of the same compound?
Answer: 1850 nM

Question: What about the GI50 [24] of the same compound?
Answer: 1960 nM
